Test results reported in ChEMBL document CHEMBL1201862, “PubChem BioAssay data set” (2004).
Values belong to the molecule of their own block, whether it stands above or below them. Calls of active or inactive are those of the source.

Columns and labels:
[1] = target: DNA (cytosine-5)-methyltransferase 1 (Homo sapiens, UniProt P26358); assay: inhibition of DNA methylation by DNMT1 – biochemical, fluorescent molecular beacon, confirmation (AID 602386); format: functional
[2] = test system: BJ; assay: BJ-TERT fibroblast viability loss – cell-based, RAS-independent, luminescence, dose response (AID 1933); format: functional; settings: Homo sapiens
[3] = test system: BJ; assay: cells; format: functional, cell-based; settings: Homo sapiens
[4] = test system: BJ; assay: BJ-TERT-LT-ST fibroblast viability loss – cell-based, RAS-independent, luminescence, dose response (AID 1935); format: functional; settings: Homo sapiens;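 further: BJ fibroblasts immortalized with TERT plus LT and ST oncogenes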
[5] = DRD fibroblast viability loss – cell-based, non-viral oncogenic, luminescence, dose response (AID 1934); format: functional; settings: Homo sapiens
[6] = test system: BJ; assay: growth inhibition of engineered Ras-driven BJ cells – cell-based, alamar blue fluorescence, cherrypicked samples, dose response (AID 2631); format: functional; settings: Homo sapiens;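 further: confirmatory dose-response assay in RAS-dependent BJ fibroblasts engineered with TERT, LT and ST, with cytotoxicity read by fluorescence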
[7] = target: T1, Insulin-degrading enzyme (Homo sapiens, UniProt P14735); assay: recombinant IDE activation, cell-free – biochemical, fluorescence polarization, counter-screen for IDE activator project, dose response (AID 588681)
T1 sequence (P14735 whole entry): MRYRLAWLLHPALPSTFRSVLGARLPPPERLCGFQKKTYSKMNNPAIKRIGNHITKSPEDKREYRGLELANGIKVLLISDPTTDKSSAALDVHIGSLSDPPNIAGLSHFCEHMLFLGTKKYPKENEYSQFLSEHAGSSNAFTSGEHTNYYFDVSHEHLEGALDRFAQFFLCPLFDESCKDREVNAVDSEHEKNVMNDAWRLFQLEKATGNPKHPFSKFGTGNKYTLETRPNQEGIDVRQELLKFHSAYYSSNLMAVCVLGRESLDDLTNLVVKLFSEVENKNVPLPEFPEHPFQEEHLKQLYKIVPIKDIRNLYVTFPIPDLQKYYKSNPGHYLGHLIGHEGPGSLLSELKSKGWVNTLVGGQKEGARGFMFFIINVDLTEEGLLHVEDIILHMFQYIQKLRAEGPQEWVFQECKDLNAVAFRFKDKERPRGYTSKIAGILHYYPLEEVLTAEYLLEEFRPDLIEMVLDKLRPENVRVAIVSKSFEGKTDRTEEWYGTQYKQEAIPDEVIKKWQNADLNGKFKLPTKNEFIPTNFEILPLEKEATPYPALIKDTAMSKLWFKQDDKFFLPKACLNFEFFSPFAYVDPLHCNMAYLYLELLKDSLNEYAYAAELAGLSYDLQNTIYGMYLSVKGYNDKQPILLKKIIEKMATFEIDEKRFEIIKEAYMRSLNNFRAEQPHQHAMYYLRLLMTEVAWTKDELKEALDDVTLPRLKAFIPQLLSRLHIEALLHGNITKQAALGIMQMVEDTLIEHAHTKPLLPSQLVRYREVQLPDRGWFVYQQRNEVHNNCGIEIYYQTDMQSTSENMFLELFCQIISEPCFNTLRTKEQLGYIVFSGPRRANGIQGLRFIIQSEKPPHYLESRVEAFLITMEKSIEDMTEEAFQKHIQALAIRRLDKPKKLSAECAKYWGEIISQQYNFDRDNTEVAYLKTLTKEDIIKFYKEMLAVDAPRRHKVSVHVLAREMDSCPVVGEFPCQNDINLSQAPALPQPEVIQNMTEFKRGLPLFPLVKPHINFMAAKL

[8] = target: T1, Insulin-degrading enzyme; assay: cellular IDE activation of Abeta substrate cleavage – fluorescence polarization, HEK cells, dose response (AID 588439); format: functional, cell-based
[9] = test system: HEK293; assay: membrane integrity loss in HEK cells – cell-based, fluorescence, cytotoxicity control for IDE activator project, dose response (AID 588440); format: functional; settings: Homo sapiens;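 further: cytotoxicity by LDH release measuring loss of membrane integrity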
[10] = test system: HEK293; assay: optical interference in Abeta FP readout, dose response, artefact control for IDE activator project, biochemical, fluorescence polarization (AID 588442); format: functional, cell-based; settings: Homo sapiens
[11] = test system: A-375; assay: MITF: Counter assay: A375 proliferation Measured in Cell-Based System Using Plate Reader - 2084-03_Inhibitor_Dose_DryPowder_Activity. [Related pubchem assays (depositor defined):AID488944]; format: functional; settings: Homo sapiens
[12] = test system: A-375; assay: proliferation inhibition in MITF-low A375 cells – cell-based, cherry-pick samples, set 2, counter-screen for MITF modulator project, dose response (AID 540335); format: functional; settings: Homo sapiens
[13] = test system: HeLa; assay: ATP-based viability loss in HeLa cells – cell-based, CellTiter-Glo luminescence, cherry-pick samples, cytotoxicity control for MITF activator project, dose response (AID 540259); format: functional; settings: Homo sapiens
[14] = target: T2, ORF 73 (Human herpesvirus 8, UniProt O40947); assay: KSHV LANA DNA-binding disruption – biochemical, fluorescence polarization, cherry-picked samples, dose response (AID 504725); set-up: species or system Human gammaherpesvirus 8;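 further: fluorescence polarization of a labeled DNA duplex reporting LANA DNA binding; potency is for inhibitors that block LANA binding to the DNA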
T2 sequence (O40947 whole entry): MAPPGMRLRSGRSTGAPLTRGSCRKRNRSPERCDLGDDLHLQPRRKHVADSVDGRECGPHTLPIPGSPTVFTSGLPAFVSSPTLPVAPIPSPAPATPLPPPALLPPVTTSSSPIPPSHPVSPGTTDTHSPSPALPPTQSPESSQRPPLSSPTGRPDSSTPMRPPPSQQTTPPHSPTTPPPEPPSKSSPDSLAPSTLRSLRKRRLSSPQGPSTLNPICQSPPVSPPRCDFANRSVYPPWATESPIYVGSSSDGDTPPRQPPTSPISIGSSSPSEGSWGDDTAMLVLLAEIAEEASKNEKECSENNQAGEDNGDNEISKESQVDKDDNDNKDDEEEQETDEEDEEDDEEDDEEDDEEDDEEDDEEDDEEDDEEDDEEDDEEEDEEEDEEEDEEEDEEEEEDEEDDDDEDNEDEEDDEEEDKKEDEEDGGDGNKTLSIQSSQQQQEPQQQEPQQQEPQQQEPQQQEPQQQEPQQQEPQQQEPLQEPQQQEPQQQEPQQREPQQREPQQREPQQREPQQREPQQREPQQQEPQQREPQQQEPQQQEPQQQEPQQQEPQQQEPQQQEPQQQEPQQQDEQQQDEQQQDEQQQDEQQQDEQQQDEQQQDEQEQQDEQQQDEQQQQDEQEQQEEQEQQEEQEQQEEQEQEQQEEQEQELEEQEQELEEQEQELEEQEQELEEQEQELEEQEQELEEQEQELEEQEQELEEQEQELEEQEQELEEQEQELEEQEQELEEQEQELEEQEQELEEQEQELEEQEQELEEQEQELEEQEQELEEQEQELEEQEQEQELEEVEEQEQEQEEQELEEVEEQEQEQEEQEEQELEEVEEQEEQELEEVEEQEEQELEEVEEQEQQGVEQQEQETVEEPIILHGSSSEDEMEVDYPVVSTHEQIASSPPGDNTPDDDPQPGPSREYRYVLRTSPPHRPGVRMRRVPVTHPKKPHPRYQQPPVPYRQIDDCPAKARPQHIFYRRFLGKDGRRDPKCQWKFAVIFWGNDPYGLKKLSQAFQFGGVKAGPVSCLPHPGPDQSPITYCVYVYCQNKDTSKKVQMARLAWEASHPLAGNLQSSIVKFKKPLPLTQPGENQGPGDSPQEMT

[15] = target: T3, Mitochondrial peptide methionine sulfoxide reductase (Bos taurus, UniProt P54149); assay: Absorbance-based biochemical high throughput dose response assay for activators of Methionine sulfoxide reductase A (MsrA).; format: functional
T3 sequence (P54149 whole entry): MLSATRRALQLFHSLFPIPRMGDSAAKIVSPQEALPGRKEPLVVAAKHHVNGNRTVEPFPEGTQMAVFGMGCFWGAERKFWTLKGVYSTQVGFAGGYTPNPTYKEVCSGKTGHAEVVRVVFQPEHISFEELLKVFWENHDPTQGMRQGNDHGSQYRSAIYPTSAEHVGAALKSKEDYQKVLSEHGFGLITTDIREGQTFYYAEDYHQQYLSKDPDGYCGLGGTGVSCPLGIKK

[16] = target: T4, Protein skinhead-1 (Caenorhabditis elegans, UniProt P34707); format: functional
T4 sequence (P34707 whole entry): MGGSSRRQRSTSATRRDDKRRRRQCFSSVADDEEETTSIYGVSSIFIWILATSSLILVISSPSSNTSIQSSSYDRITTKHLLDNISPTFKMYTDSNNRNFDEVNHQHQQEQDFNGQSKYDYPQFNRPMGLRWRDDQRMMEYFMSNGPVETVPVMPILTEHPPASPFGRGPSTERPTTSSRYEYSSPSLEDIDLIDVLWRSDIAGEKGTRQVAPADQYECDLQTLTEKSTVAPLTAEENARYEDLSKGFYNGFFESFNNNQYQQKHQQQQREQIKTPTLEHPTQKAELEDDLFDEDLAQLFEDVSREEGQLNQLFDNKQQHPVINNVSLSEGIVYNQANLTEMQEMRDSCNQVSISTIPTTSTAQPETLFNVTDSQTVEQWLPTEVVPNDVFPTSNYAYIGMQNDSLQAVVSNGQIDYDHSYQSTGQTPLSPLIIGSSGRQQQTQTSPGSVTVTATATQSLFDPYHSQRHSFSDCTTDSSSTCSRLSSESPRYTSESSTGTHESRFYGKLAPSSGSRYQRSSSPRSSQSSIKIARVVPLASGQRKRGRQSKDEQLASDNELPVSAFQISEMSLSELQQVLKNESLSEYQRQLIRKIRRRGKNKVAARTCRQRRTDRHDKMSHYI

DNA (cytosine-5)-methyltransferase 1, sequence (P26358 whole entry): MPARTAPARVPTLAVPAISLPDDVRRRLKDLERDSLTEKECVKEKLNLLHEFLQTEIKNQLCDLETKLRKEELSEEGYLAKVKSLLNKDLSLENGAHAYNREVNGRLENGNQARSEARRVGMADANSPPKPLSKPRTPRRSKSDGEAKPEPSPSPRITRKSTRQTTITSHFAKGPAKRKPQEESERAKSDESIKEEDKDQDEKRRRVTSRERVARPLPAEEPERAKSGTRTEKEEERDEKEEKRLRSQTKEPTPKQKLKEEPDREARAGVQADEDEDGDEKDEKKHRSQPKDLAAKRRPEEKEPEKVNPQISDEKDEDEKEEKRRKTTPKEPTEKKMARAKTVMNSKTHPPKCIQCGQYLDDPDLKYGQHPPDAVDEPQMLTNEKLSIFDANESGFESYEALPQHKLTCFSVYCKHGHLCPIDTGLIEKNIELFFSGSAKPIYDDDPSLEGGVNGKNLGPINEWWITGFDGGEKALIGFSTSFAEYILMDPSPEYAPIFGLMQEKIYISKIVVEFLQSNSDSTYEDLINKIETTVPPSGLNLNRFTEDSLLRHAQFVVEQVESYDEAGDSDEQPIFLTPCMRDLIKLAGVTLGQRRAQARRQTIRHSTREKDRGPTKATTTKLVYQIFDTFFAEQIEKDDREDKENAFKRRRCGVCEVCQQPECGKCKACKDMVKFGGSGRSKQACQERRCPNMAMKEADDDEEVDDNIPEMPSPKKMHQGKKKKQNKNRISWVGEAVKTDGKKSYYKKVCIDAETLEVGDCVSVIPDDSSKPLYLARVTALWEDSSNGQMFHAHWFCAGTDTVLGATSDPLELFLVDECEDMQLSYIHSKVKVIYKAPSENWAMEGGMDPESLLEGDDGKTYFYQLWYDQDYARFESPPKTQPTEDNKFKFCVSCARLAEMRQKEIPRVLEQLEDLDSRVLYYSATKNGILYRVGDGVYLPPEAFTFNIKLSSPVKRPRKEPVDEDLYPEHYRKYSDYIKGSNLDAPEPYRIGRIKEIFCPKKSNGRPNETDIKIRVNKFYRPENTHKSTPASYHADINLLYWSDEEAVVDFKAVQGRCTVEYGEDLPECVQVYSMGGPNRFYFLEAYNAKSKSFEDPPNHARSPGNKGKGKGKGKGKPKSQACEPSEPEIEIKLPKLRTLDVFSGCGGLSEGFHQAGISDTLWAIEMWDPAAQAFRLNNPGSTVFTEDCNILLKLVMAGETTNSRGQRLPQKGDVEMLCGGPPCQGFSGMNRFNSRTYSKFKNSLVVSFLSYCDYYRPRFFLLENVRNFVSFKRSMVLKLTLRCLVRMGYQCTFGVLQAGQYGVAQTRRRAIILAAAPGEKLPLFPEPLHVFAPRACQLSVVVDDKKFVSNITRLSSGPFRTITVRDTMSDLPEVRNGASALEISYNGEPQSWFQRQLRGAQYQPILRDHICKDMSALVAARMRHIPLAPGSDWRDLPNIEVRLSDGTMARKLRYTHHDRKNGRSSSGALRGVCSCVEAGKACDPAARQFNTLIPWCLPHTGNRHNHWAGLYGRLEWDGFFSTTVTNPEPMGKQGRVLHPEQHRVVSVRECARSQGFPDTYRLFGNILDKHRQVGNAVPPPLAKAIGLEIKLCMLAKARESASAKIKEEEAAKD

IC50 [1]: > 99 µM (inactive)
Structure (SMILES): COc1ccccc1N1CCN(/N=C/c2ccc(Cl)c([N+](=O)[O-])c2)CC1

Structure (SMILES): Cc1ccc(/C=N/NC(=O)c2cc(-c3ccncc3)nc3ccccc23)o1
EC50 [2]: 2.77 µM (active)
EC50 [3]: 37.5 µM (inconclusive)
EC50 [4]: 25.4 µM (active)
EC50 [5]: 2.27 µM (active)
EC50 [6]: 1.41 µM (active)

Structure (SMILES): O=C(NC1CCCC1)c1cnn2c(C(F)(F)F)cc(-c3ccc4c(c3)OCO4)nc12
EC50 [7]: > 54.7 µM (inactive)
EC50 [8]: > 54.7 µM (inactive)
IC50 [9]: > 89.2 µM (inactive)
EC50 [10]: > 55.9 µM (inactive)

Structure (SMILES): CC(=O)/N=C(\N)Nc1nc2cc(C)ccc2o1
AC50 [11]: > 35 µM (active)
AC50 [12]: > 35 µM (active)

Structure (SMILES): Cc1ccc2c(Cl)c(C(=O)Nc3cccnc3)sc2c1
AC50 [13]: 46.7 µM (active)

Structure (SMILES): CC(=O)OCCn1c2nc(=O)[nH]c(=O)c-2nc2cc(C)c(C)cc21
AC50 [14]: 0.246 µM (active)
EC50 [7]: > 54.7 µM (inactive)
EC50 [8]: > 54.7 µM (inactive)
IC50 [9]: > 89.2 µM (inactive)
EC50 [10]: > 54.7 µM (inactive)
EC50 [15]: 54.4 µM (inactive)

Structure (SMILES): Clc1ccccc1/C=C/c1nc(-c2cccnc2)no1
AC50 [13]: 54.3 µM (active)
IC50 [16]: > 100 µM (inactive)
